Experimental findings from US20140142129A1, “METHODS OF TREATING A DISEASE OR DISORDER ASSOCIATED WITH BRUTON'S TYROSINE KINASE” (Celgene Avilomics Research, Inc,, priority 2012, published 2014) are described below.

Each structure is given as a SMILES string.

A short description of data set [1]: Safety in single dose studies in healthy subjects. In kind it is in vivo, human.
For data set [2], the system named is B-cell non-Hodgkin lymphoma. In words: Single agent (monotherapy) clinical study in B-cell non-Hodgkin lymphoma patients. The class given is in vivo.
Data set [3] in a line: Environmental stability (heat, acid, base). In kind it is physicochemical.

On to `C=CC(=O)Nc1cccc(Nc2nc(Nc3ccc(OCCOC)cc3)ncc2F)c1` [Compound 1, N-(3-(5-fluoro-2-(4-(2-methoxyethoxy)phenylamino)pyrimidin-4-ylamino)phenyl)acrylamide], for which the safety entry in data set [1] was “adequate safety”. Further, the “maximum tolerated dose (MTD)” value in data set [2] (single agent, up to 750 mg PO QD) was “has not yet been reached”.

For the compound `C=CC(=O)Nc1cccc(Nc2nc(Nc3ccc(OCCOC)cc3)ncc2F)c1.O=S(=O)(O)c1ccccc1` [Compound 1 besylate, N-(3-(5-fluoro-2-(4-(2-methoxyethoxy)phenylamino)pyrimidin-4-ylamino)phenyl)acrylamide benzenesulfonic acid salt], the “patients with stable disease continuing on treatment” value in data set [2] (B-cell non-Hodgkin lymphoma, monotherapy, as of Sep. 11, 2012) is 9 out of 17. For the same compound, in data set [2] (evaluable B-NHL patients, monotherapy), the “patients with decreased lymph node size” value is recorded as “Six of eleven”. Besides, the “environmental instabilities (heat, acid, base)” value in data set [3] is given as “no environmental instabilities”.
